Experimental data reported in PMC2000878, “Module structure of interphotoreceptor retinoid-binding protein (IRBP) may provide bases for its complex role in the visual cycle – structure/function study of Xenopus IRBP” (BMC Biochemistry, 2007).
Read-outs that look alike come from different tables or passages of the source.

Tests used:
Assay type in all cases: binding
Xenopus IRBP Module 4 = molecular target: T1, Xenopus IRBP Module 4 (Xenopus laevis, UniProt Q7SZI7); experiment: Fluorometric titration (enhancement, quenching)
T1 construct: cDNAs corresponding to the full-length IRBP, module 1, and module 2 were expressed in pThioHis; modules 3 and 4 were expressed in pTrxFus; made in house; host or cells: E. coli GI724 / GI698 (pTrxFus)
T1 sequence (Q7SZI7 923-1219): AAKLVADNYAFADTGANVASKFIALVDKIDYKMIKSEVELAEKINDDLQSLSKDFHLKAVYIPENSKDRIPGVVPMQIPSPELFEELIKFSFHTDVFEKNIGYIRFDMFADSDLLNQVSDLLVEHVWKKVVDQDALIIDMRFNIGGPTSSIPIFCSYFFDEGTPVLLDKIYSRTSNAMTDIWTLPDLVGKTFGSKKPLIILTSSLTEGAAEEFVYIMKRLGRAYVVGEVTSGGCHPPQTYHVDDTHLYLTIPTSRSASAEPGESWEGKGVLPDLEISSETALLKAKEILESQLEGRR
Excerpt: (§1) Enhancement of retinol fluorescence and quenching of the intrinsic protein fluorescence were used to monitor binding of all-trans retinol to the recombinant IRBPs. We previously derived an equation that is generally useful for describing such quantum yield changes that are consequent upon ligand binding. This equation has been previously applied to the analysis of binding by monitoring the enhancement of retinol fluorescence. In this case, where excitation is at 330 nm and emission is monitored at 480, the fluorescence enhancement (Fenh) depends on the total retinol concentration (Rt), the dissociation constant (Kd ^all-trans), the number of retinol-binding sites per protein molecule (N) and the total protein concentration (Pt).
(§2) Assuming that there is a single type of noninteracting site on the protein, (Fenh) is expected to be linearly related to the concentration of bound retinol molecules. Fenh is given by the relation
(§3) Fenh=C1+C2[Rtall−trans−(Rtall−trans+NPt+Kdall−trans)^2−4NPtRtall−trans] MathType@MTEF@5@5@+=feaafiart1ev1aaatCvAUfKttLearuWrP9MDH5MBPbIqV92AaeXatLxBI9gBaebbnrfifHhDYfgasaacH8akY=wiFfYdH8Gipec8Eeeu0xXdbba9frFj0=OqFfea0dXdd9vqai=hGuQ8kuc9pgc9s8qqaq=dirpe0xb9q8qiLsFr0=vr0=vr0dc8meaabaqaciaacaGaaeqabaqabeGadaaakeaacqWGgbGrdaWgaaWcbaGaemyzauMaemOBa4MaemiAaGgabeaakiabg2da9iabdoeadnaaBaaaleaacqaIXaqmaeqaaOGaey4kaSIaem4qam0aaSbaaSqaaiabikdaYaqabaGcdaWadaqaaiabdkfasnaaDaaaleaacqWG0baDaeaacqWGHbqycqWGSbaBcqWGSbaBcqGHsislcqWG0baDcqWGYbGCcqWGHbqycqWGUbGBcqWGZbWCaaGccqGHsisldaGcaaqaamaabmaabaGaemOuai1aa0baaSqaaiabdsha0bqaaiabdggaHjabdYgaSjabdYgaSjabgkHiTiabdsha0jabdkhaYjabdggaHjabd6gaUjabdohaZbaakiabgUcaRiabd6eaojabdcfaqnaaBaaaleaacqWG0baDaeqaaOGaey4kaSIaem4saS0aa0baaSqaaiabdsgaKbqaaiabdggaHjabdYgaSjabdYgaSjabgkHiTiabdsha0jabdkhaYjabdggaHjabd6gaUjabdohaZbaaaOGaayjkaiaawMcaamaaCaaaleqabaGaeGOmaidaaOGaeyOeI0IaeGinaqJaemOta4Kaemiuaa1aaSbaaSqaaiabdsha0bqabaGccqWGsbGudaqhaaWcbaGaemiDaqhabaGaemyyaeMaemiBaWMaemiBaWMaeyOeI0IaemiDaqNaemOCaiNaemyyaeMaemOBa4Maem4CamhaaaqabaaakiaawUfacaGLDbaaaaa@8490@
(§4) The equation was fit to the data by nonlinear least-squares analysis. To follow the quenching of the protein's intrinsic fluorescence the excitation and emission wavelengths were set to 280 nm and 340 nm, respectively, while the protein was titrated with all-trans retinol. For the quenching studies the inner filter effect was accounted for by graphical correction as previously described. Fluorescence measurements were made using an SLM 8000TM C photon counting spectrofluorometer corrected for wavelength dependence of source energy and detector response.

Xenopus IRBP Module 3 = molecular target: T2, Xenopus IRBP Module 3 (Xenopus laevis, UniProt Q7SZI7); experiment: Fluorometric titration (enhancement, quenching)
T2 construct: cDNAs corresponding to the full-length IRBP, module 1, and module 2 were expressed in pThioHis; modules 3 and 4 were expressed in pTrxFus; made in house; host or cells: E. coli GI724 / GI698 (pTrxFus)
T2 sequence (Q7SZI7 616-922): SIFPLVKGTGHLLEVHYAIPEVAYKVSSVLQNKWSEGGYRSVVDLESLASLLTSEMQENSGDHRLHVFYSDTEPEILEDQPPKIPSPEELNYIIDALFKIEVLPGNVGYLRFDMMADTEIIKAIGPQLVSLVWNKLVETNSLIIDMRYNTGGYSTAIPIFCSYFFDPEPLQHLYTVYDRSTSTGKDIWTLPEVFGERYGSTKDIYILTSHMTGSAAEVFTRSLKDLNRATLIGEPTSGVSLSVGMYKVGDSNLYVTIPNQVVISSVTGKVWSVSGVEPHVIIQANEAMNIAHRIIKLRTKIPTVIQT
Excerpt: as §1, §2, §3, §4

[1] = molecular target: X(1,2)IRBP (Xen IRBP modules 1&2) (Xenopus laevis, UniProt Q7SZI7); experiment: Fluorometric titration, retinol fluorescence enhancement, double module; conditions: ex 330 nm, em 480 nm, protein 0.67 μM
Sequence of X(1,2)IRBP (Xen IRBP modules 1&2) (Q7SZI7 23-617): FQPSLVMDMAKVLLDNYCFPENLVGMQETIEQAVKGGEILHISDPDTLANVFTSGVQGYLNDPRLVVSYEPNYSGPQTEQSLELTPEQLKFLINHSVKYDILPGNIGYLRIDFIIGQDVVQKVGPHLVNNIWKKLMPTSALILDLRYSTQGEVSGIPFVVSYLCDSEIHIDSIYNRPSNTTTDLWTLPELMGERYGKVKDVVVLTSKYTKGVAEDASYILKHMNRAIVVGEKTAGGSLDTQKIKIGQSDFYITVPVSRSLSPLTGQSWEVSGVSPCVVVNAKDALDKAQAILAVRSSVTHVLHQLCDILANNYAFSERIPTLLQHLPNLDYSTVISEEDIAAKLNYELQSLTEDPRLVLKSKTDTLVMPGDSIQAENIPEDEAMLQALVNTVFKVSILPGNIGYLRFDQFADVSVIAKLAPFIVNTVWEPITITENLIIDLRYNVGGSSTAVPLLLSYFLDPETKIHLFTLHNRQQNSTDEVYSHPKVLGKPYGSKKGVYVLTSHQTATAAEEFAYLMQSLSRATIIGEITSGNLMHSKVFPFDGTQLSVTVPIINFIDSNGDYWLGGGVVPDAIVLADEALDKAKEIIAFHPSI
Excerpt: (§5) Why do the number of sites from individual modules add up to more than that detected in the full-length IRBP? Here we asked whether the number of sites within individual modules could at least predict the number in recombinant proteins consisting of two modules. We had originally anticipated that the sum of sites from individual modules would give the number in such "module pairs". However, this turned out to be not always true. We expressed and purified module combinations 1&2 and 3&4, termed X(1,2)IRBP and X(3,4)IRBP respectively. Binding of all-trans retinol to these module pairs was characterized by fluorometric titrations monitoring retinol-fluorescence enhancement (Figure 10). For X(1,2)IRBP, N = 2.45 ± 0.11 (2.40 sites were predicted from the sum of individual modules 1 plus 2). In contrast, N for X(3,4)IRBP was 1.43 ± 0.21 sites (predicted, 3.83 sites). […] That is, some sites may not be solvent exposed in the intact IRBP as they are within individual modules. […] Therefore it is plausible that some binding sites that are solvent exposed in the individual module are buried in the intact […]. To address this question, ongoing studies in our laboratories are aimed at determining the X-ray crystal structure of IRBPs composed of multiple modules.
(§6) Figure 10 Retinol binding to Xenopus IRBPs consisting of two contiguous modules. Binding of double modules IRBPs with all-trans retinol as followed during titrations by monitoring the increase in retinol fluorescence (excitation, 330 nm; emission, 480 nm). The concentration of the IRBP double module was: modules 1&2, 0.67 μM; modules 3&4, 0.57 μM.
as §1
(§7) Assuming that there is a single type of noninteracting site on the protein, (Fenh) is expected to be linearly related to the concentration of bound retinol molecules. […]
(§8) The equation was fit to the data by nonlinear least-squares analysis. To follow the quenching of the protein's intrinsic fluorescence the excitation and emission wavelengths were set to 280 nm and 340 nm, respectively, while the protein was titrated with all-trans retinol. […]

[2] = molecular target: X(3,4)IRBP (Xen IRBP modules 3&4) (Xenopus laevis, UniProt Q7SZI7); experiment: as above; conditions: ex 330 nm, em 480 nm, protein 0.57 μM
Sequence of X(3,4)IRBP (Xen IRBP modules 3&4) (Q7SZI7 618-1219): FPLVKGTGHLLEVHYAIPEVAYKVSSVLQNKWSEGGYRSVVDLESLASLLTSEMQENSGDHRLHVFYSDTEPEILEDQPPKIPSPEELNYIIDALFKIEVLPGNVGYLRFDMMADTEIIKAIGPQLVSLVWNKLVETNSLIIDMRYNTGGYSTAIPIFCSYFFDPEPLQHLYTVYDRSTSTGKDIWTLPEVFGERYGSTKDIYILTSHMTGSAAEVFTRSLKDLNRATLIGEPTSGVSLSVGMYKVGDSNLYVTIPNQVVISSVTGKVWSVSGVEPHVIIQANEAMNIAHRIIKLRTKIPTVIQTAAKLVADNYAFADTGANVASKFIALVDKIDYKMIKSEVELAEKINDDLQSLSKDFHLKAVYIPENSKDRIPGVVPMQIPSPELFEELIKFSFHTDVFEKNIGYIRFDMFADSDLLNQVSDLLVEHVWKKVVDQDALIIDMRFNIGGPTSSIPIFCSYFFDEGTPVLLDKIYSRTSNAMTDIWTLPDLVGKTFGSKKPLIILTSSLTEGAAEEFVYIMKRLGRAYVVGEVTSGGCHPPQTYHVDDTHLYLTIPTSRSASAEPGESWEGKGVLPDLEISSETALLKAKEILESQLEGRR
Excerpt: as §5, §6, §1, §7, §8

Xenopus IRBP Module 1 = Xenopus IRBP Module 1 (Xenopus laevis, UniProt Q7SZI7); experiment: Fluorometric titration (enhancement, quenching); design: cDNAs corresponding to the full-length IRBP, module 1, and module 2 were expressed in pThioHis; modules 3 and 4 were expressed in pTrxFus; made in house; host or cells: E. coli Top10 (pThioHis)
Sequence of Xenopus IRBP Module 1 (Q7SZI7 23-315): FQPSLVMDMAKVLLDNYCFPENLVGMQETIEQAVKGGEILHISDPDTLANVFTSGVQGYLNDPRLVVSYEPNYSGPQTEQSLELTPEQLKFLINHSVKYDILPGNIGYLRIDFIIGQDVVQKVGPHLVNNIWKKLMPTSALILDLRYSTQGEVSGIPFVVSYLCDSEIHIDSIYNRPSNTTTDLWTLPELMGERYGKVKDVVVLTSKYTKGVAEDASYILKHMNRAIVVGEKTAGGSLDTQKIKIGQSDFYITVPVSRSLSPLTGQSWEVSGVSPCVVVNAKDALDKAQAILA
Excerpt: as §1, §2, §3, §4

[3] = all-trans retinol fluorescence enhancement, ex 330 nm, em 480 nm
[4] = quenching by all-trans retinol, ex 280 nm, em 340 nm, read-out: Kd, Quenching
[5] = all-trans retinol fluorescence enhancement, ex 330 nm, em 480 nm, read-out: Kd, Enhancement

`CC1=C(/C=C/C(C)=C/C=C/C(C)=C/CO)C(C)(C)CCC1` [all-trans retinol] was tested, and the “Binding sites (N), Enhancement” value (Xenopus IRBP Module 4; [3]) was 2.06 ± 0.53, the Kd (Xenopus IRBP Module 4; all-trans retinol fluorescence enhancement, ex 330 nm, em 480 nm, absence of 11-cis retinaldehyde, read-out: Kd, Enhancement) was 1.79 ± 0.54 µM and the Kd (Xenopus IRBP Module 4; [4]) was 0.64 ± 0.05 µM. For the same compound, the “Binding sites (N), Enhancement” value (Xenopus IRBP Module 3; [3]) was 1.83 ± 0.42, the Kd (Xenopus IRBP Module 3; [5]) was 1.18 ± 0.41 µM and the Kd (Xenopus IRBP Module 3; [4]) was 0.31 ± 0.04 µM. The “Binding sites (N)” value [1] was 2.45 ± 0.11, the Kd [1] was 0.049 ± 0.023 µM and the “Binding sites (N)” value [2] was 1.43 ± 0.21. The Kd [2] was 0.19 ± 0.05 µM, the “Binding sites (N), Enhancement” value (Xenopus IRBP Module 1; [3]) was 0.83 ± 0.15 and the Kd (Xenopus IRBP Module 1; [5]) was 0.44 ± 0.13 µM. For the same compound, the Kd (Xenopus IRBP Module 1; [4]) was 0.35 ± 0.08 µM.
